Tests used:
[1] = biological target: T1, 5-HT1B receptor (Homo sapiens, UniProt P28222); assay: 5-HT1B receptor competition binding assay (SPA, [3H]-GR125743)
Method: (§1) These assays were be used with some modifications:
(§2) For the binding assay stably transfected chinese hamster ovary (CHO) cell lines expressing 5-HT1A receptors or 5-HT1B receptors were harvested by centrifugation at 300×g for 10 min and resuspended in 10 mM Tris-HCl, 5 mM EDTA at pH 7.4. The cells were pooled, recentrifuged and resuspended before homogenisation using a Dounce homogeniser (“type B”). Cell membranes were centrifuged at 48 000×g for 10 min and then resuspended in harvesting buffer using an Ultra-Turrax T8 (IKA Labortechnik, Germany), aliquots were stored frozen in −70° C.
(§3) Frozen membrane preparations were thawed, homogenized with an Ultra-Turrax and mixed with SPA beads (YSI coated WGA, GE Healthcare/Amersham, Buckinghamshire, UK) in assay buffer containing 50 mM Tris-Base, 4 mM MgCl2, 4 mM CaCl2 (only 5-HT1B), 1 mM EDTA, and adjusted to pH 7.4 with HCl. The beads/membrane solution, final concentration 100 pM receptors for 5-HT1A, 300 pM receptors for 5-HT1B and 0.5 mg SPA beads/well, was pre-incubated in room temperature with stirring for 30-60 min. […] The assay plates were incubated for 4 hours where after the plates are counted in a Wallac 1450 Microbeta Trilux counter (PerkinElmer LifeScience, US) or similar. Data from the experiments were analyzed using a four parameter logistic equation as follows: Y=Bottom+(Top−Bottom)/1+10^(Log EC50-X)nH.

[2] = biological target: T2, 5-HT1A receptors (Homo sapiens, UniProt P08908); assay: 5-HT1A receptor competition binding assay (SPA, [3H]-8-OH-DPAT)
T2 sequence (P08908 1-422): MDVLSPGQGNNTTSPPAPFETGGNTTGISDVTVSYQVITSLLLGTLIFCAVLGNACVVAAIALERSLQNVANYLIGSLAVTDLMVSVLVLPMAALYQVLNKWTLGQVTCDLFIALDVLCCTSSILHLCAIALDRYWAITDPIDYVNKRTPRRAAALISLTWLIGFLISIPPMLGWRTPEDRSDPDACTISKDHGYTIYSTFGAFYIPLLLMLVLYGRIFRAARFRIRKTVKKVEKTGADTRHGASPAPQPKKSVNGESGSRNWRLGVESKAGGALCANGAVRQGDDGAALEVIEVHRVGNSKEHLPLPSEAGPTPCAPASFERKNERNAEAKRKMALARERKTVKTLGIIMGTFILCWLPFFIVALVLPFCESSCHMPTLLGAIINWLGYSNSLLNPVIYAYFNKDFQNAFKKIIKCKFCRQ
Method: as §1, §2, §3

[3] = biological target: T1, 5-HT1B receptor; assay: saturation binding studies, 5-HT1B receptor; settings: read-out: Kd of radioligand (used in calculation of Ki values)
Method: Frozen membrane preparations were thawed, homogenized with an Ultra-Turrax and mixed with SPA beads (YSI coated WGA, GE Healthcare/Amersham, Buckinghamshire, UK) in assay buffer containing 50 mM Tris-Base, 4 mM MgCl2, 4 mM CaCl2 (only 5-HT1B), 1 mM EDTA, and adjusted to pH 7.4 with HCl. The beads/membrane solution, final concentration 100 pM receptors for 5-HT1A, 300 pM receptors for 5-HT1B and 0.5 mg SPA beads/well, was pre-incubated in room temperature with stirring for 30-60 min. […] Five (log interval, 10 μM to 1 nM, final concentration) or ten serial dilutions (½-log interval, 0.1 μM to 0.0032 nM, final concentration) of compounds were prepared in DMSO from 10 mM stock solutions. The binding assays were performed in 384-well plates in a final volume of 90 μL/well with the following additions: 9 μL binding buffer; 1 μL compound/DMSO/nonspecific; 20 μL radioligand; and 60 μL beads/membrane mixture. Non-specific binding was defined by using 10 μM WAY100635 for 5-HT1A and 10 μM Methiothepin for 5-HT1B. The assay plates were incubated for 4 hours where after the plates are counted in a Wallac 1450 Microbeta Trilux counter (PerkinElmer LifeScience, US) or similar. Data from the experiments were analyzed using a four parameter logistic equation as follows: Y=Bottom+(Top−Bottom)/1+10^(Log EC50-X)nH.

T1 sequence (P28222 whole entry): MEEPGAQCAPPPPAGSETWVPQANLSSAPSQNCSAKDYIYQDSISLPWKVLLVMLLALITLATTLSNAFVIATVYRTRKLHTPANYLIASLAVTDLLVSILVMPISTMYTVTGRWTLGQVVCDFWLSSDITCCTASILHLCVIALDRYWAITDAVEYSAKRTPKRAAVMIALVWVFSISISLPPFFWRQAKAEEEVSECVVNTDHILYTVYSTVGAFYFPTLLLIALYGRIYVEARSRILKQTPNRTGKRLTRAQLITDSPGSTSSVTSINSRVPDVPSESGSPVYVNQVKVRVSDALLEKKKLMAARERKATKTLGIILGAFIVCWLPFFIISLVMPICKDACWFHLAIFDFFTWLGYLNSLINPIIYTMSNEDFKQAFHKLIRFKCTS

CNC(=O)c1cc2c(N3CCN(CCc4cccc5c4CCC(=O)N5C)CC3)cccc2o1 [compound of formula (I), N-Methyl-4-[4-[2-(1-methyl-2-oxo-3,4-dihydroquinolin-5-yl)ethyl]piperazin-1-yl]benzofuran-2-carboxamide]
Ki [1]: 650 pM | Ki [2]: 70 pM

COc1ccc(NC(=O)c2ccc(-c3ccncc3)c(C)c2)cc1N1CCN(C)CC1 [[^3H]-GR125743]
Kd [3]: 870 pM

Source: US9012457B2, “2-carboxamide-4-piperazinyl-benzofuran derivative” (AstraZeneca AB, priority 2010, dated 2015)
